Laboratory results: patent US20060035904A1, “Antineoplastic combinations” (Wyeth, priority 2001, published 2006)
Counter-ions that a name gives are not always drawn. Each block holds one compound with its values, some of them ahead of it.

Key:
orthotopic glioma = details: nude mice; cited from earlier work
[1] = system: histologically diverse tumor cells; details: cited from earlier work
breast cancer lines = details: one of two lines studied; cited from earlier work
human pancreatic tumors = details: several tumors, nude mice; cited from earlier work
[2] = system: human tumor xenografts of diverse histological types; details: cited from earlier work
[3] = system: human glioblastoma cell line; details: in vitro; cited from earlier work
[4] = system: human colon (GC3) xenograft; assay: human colon (GC3) mouse xenograft test procedure; type: in vivo, mice; details: gemcitabine on days 1, 4, 8 in cycle 1 only; CCI-779 daily x5 for 2 consecutive weeks every 21 days, 3 cycles
Protocol: Female CBA/CaJ mice (Jackson Laboratories, Bar Harbor, Me.), 4 weeks of age, were immune-deprived by thymectomy, followed 3 weeks later by whole-body irradiation (1200 cGy) using a ^137Cs source. Mice received 3×10^6 nucleated bone marrow cells within 6-8 h of irradiation. Tumor pieces of approximately 3 mm^3 were implanted in the space of the dorsal lateral flanks of the mice to initiate tumor growth. Tumor-bearing mice were randomized into groups of seven prior to initiating therapy. Mice bearing tumors each received drug when tumors were approximately 0.20-1 cm in diameter. Tumor size was determined at 7-day intervals using digital Vernier calipers interfaced with a computer. Tumor volumes were calculated assuming tumors to be spherical using the formula [(π/6)×d^3], where d is the mean diameter. CCI-779 was given on a schedule of 5 consecutive days for 2 weeks with this cycle repeated every 21 days for 3 cycles. […] The schedule of the other chemotherapy drug for each study was as follows: Gemcitabine on days 1, 4, 8 in cycle 1 only. […] In this test procedure, CCI-779 was given daily 5 for 2 consecutive weeks every 21 days for 3 cycles and gemcitabine given on days 1, 4, and 8 in the first cycle only.

mTOR = mTOR (Homo sapiens, UniProt P42345+P62942); assay: Western blot of p70s6 kinase serine389 phosphorylation in growth factor stimulated cells; type: cell-based
Protocol: Cell lines were grown in optimal basal medium supplemented with 10% fetal bovine serum and penicillin/treptomycin. For phosphorylation studies, cells were subcultured in 6-well plates. After the cells have completely attached, they were serum-starved. Treatment with mTOR inhibitors ranged from 2 to 16 hours. After drug treatment, the cells were rinsed once with PBS (phosphate buffered saline without Mg^2+ and Ca^2+) and then lysed in 150-200 μl NuPAGE LDS sample buffer per well. The lysates were briefly sonicated and then centrifuged for 15 minutes at 14000 rpm. Lysates were stored at minus −80° C. until use.
The test procedure can also be run by incubating the cells in growth medium overnight, after they have completely attached.
1) Prepare total protein samples by placing 22.5 μl of lysate per tube and then add 2.5 μl NuPAGE sample reducing agent. Heat samples at 70° C. for 10 minutes. Electrophorese using NuPAGE gels and NuPAGE SDS buffers.
2) Transfer the gel to a nitrocellulose membrane with NuPAGE transfer buffer. The membrane is blocked for 1 hour with blocking buffer (Tris buffered saline with 0.1% Tween and 5% nonfat-milk). Rinse membranes 2× with washing buffer (Tris buffered saline with 0.1% Tween).
3) Blots/membranes are incubated with the Phospho-p70 S6 Kinase (Thr^389) primary antibody (1:1000) in blocking buffer overnight at 4° C. in a rotating platform. […]

SMILES: CO[C@H]1C[C@@H]2CC[C@@H](C)[C@@](O)(O2)C(=O)C(=O)N2CCCC[C@H]2C(=O)O[C@H]([C@H](C)C[C@@H]2CC[C@@H](OC(=O)C(C)(CO)CO)[C@H](OC)C2)CC(=O)[C@H](C)/C=C(\C)[C@@H](O)[C@@H](OC)C(=O)[C@H](C)C[C@H](C)/C=C/C=C/C=C/1C [CCI-779, rapamycin 42-ester with 3-hydroxy-2-(hydroxymethyl)-2-methylpropionic acid]
- activity in orthotopic glioma model (orthotopic glioma): active
- sensitivity of tumor cell lines in vitro ([1]; CNS cancer, leukemia (T-cell), breast cancer, prostate cancer and melanoma lines): among the most sensitive
- growth of tumor cells in vitro ([1]; a number of histologically diverse tumor cells): inhibit the growth
- cell cycle effect [1]: arrested cells in the G1 phase
- growth of breast cancer lines in vivo (breast cancer lines): inhibited
- growth of human pancreatic tumors (human pancreatic tumors): inhibited
- sensitivity of gliomas in vivo ([2]; gliomas): particularly sensitive
- activity against human tumor xenografts ([2]; nude mice, diverse histological types): has activity
- growth factor (platelet-derived)-induced stimulation [3]: markedly suppressed

SMILES: Nc1ccn([C@@H]2O[C@H](CO)[C@@H](O)C2(F)F)c(=O)n1 [gemcitabine, 2′-deoxy-2′,2′-difluorocytidine monohydrochloride ((beta)-isomer)]
- tumor regression in the first cycle [4]: tumor regression seen in the first cycle

- phosphorylation of serine389 of p70s6 kinase (mTOR): completely blocks
SMILES: CO[C@H]1C[C@@H]2CC[C@@H](C)[C@@](O)(O2)C(=O)C(=O)N2CCCC[C@H]2C(=O)O[C@H]([C@H](C)C[C@@H]2CC[C@@H](O)[C@H](OC)C2)CC(=O)[C@H](C)/C=C(\C)[C@@H](O)[C@@H](OC)C(=O)[C@H](C)C[C@H](C)/C=C/C=C/C=C/1C [rapamycin]
